Active and inactive are the calls of the source. No rule for the calls is given here.
System: CCRIS mutagenicity, Ames/micronucleus/aberration tests
Assay: CCRIS mutagenicity studies
Conditions: Test System: AMES SALMONELLA TYPHIMURIUM

Measured: mutagenic call

C=CCSSCCC
inactive: Strain/Indicator: TA97, Metabolic Activation: HAMSTER, LIVER, S-9, AROCLOR 1254 (10 OR 30%), Method: PREINCUBATION inactive; negative | Strain/Indicator: TA97, Metabolic Activation: NONE, Method: PREINCUBATION inactive; negative | Strain/Indicator: TA97, Metabolic Activation: RAT, LIVER, S-9, AROCLOR 1254 (10 OR 30%), Method: PREINCUBATION inactive; negative | Strain/Indicator: TA98, Metabolic Activation: HAMSTER, LIVER, S-9, AROCLOR 1254 (10 OR 30%), Method: PREINCUBATION inactive; negative | Strain/Indicator: TA98, Metabolic Activation: NONE, Method: PREINCUBATION inactive; negative | Strain/Indicator: TA98, Metabolic Activation: RAT, LIVER, S-9, AROCLOR 1254 (10 OR 30%), Method: PREINCUBATION inactive; negative | Strain/Indicator: TA100, Metabolic Activation: HAMSTER, LIVER, S-9, AROCLOR 1254 (10 OR 30%), Method: PREINCUBATION inactive; negative | Strain/Indicator: TA100, Metabolic Activation: NONE, Method: PREINCUBATION inactive; negative | Strain/Indicator: TA100, Metabolic Activation: RAT, LIVER, S-9, AROCLOR 1254 (10 OR 30%), Method: PREINCUBATION inactive; negative | Strain/Indicator: TA1535, Metabolic Activation: HAMSTER, LIVER, S-9, AROCLOR 1254 (10 OR 30%), Method: PREINCUBATION inactive; negative | Strain/Indicator: TA1535, Metabolic Activation: NONE, Method: PREINCUBATION inactive; negative | Strain/Indicator: TA1535, Metabolic Activation: RAT, LIVER, S-9, AROCLOR 1254 (10 OR 30%), Method: PREINCUBATION inactive; negative

N[C@@H](CCC(=O)Nc1ccc([N+](=O)[O-])cc1)C(=O)O
inactive: Strain/Indicator: TA100, Metabolic Activation: NONE, Method: STANDARD PLATE inactive; negative | Strain/Indicator: TA100, Metabolic Activation: RAT KIDNEY, MICROSOMES, Method: STANDARD PLATE inactive; negative | Strain/Indicator: TA100, Metabolic Activation: RAT LIVER, MICROSOMES, Method: STANDARD PLATE inactive; negative

Reference: PubChem BioAssay AID1259407 (Chemical Carcinogenesis Research Information System (CCRIS), 2018)
